biological target: T1, His-TEV-DYRK1A Kinase domain (aa127-485) (Homo sapiens, UniProt Q13627); experiment: Kinase ADP assay (ADP Hunter Plus); assay type: biochemical
T1 construct: His-TEV-DYRK1A Kinase domain (aa127-485); His (N); TEV cleavage site (N)

| Compound | IC50 [µM] |
| --- | --- |
| Cc1cc(-c2c[nH]c3nc(C)nc(OC[C@@H]4CCCNC4)c23)ccn1 [Example 6, 2-methyl-5-(2-methylpyridin-4-yl)-4-[(3R)-piperidin-3-ylmethoxy]-7H-pyrrolo[2,3-d]pyrimidine] | 0.07 |
| Cc1nc(OCC2CC2)c2c(-c3ccncc3)c[nH]c2n1 [Example 7, 4-(cyclopropylmethoxy)-2-methyl-5-(pyridin-4-yl)-7H-pyrrolo[2,3-d]pyrimidine] | 0.039 |
| Cc1nc(OCCC2CC2)c2c(-c3ccncc3)c[nH]c2n1 [Example 8, 4-(2-cyclopropylethoxy)-2-methyl-5-(pyridin-4-yl)-7H-pyrrolo[2,3-d]pyrimidine] | 0.038 |
| Cc1nc(OCCc2c[nH]c3ccccc23)c2c(-c3ccncc3)c[nH]c2n1 [Example 9, 4-[2-(1H-indol-3-yl)ethoxy]-2-methyl-5-(pyridin-4-yl)-7H-pyrrolo[2,3-d]pyrimidine] | 0.06 |
| Cc1nc(OCCc2ccccc2)c2c(-c3ccncc3)c[nH]c2n1 [Example 10, 2-methyl-4-(2-phenylethoxy)-5-(pyridin-4-yl)-7H-pyrrolo[2,3-d]pyrimidine] | 0.085 |
| Cc1nc(OCCN2CCCC2)c2c(-c3ccncc3)c[nH]c2n1 [Example 12, 2-methyl-5-(pyridin-4-yl)-4-[2-(pyrrolidin-1-yl)ethoxy]-7H-pyrrolo[2,3-d]pyrimidine] | 2.04 |
| Cc1nc(OCCN2CCCCC2)c2c(-c3ccncc3)c[nH]c2n1 [Example 13, 2-methyl-4-[2-(piperidin-1-yl)ethoxy]-5-(pyridin-4-yl)-7H-pyrrolo[2,3-d]pyrimidine] | 1.37 |
| Cc1nc(OCC2CCCO2)c2c(-c3ccncc3)c[nH]c2n1 (centres unmarked) [Example 14, 2-methyl-5-(pyridin-4-yl)-4-(tetrahydrofuran-2-ylmethoxy)-7H-pyrrolo[2,3-d]pyrimidine] | 0.043 |
| Cc1nc(OCc2cccs2)c2c(-c3ccnc(N)c3)c[nH]c2n1 [Example 19, 4-[2-methyl-4-(thiophen-2-ylmethoxy)-7H-pyrrolo[2,3-d]pyrimidin-5-yl]pyridin-2-amine] | 0.025 |
| Cc1nc(OCc2cccnc2)c2c(-c3ccnc(N)c3)c[nH]c2n1 [Example 22, 4-[2-methyl-4-(pyridin-3-ylmethoxy)-7H-pyrrolo[2,3-d]pyrimidin-5-yl]pyridin-2-amine] | 0.018 |
| Cc1nc(OCc2ccncc2)c2c(-c3ccnc(N)c3)c[nH]c2n1 [Example 23, 4-[2-methyl-4-(pyridin-4-ylmethoxy)-7H-pyrrolo[2,3-d]pyrimidin-5-yl]pyridin-2-amine] | 0.015 |
| Cc1nc(OCc2cc(-c3ccc(F)cc3)on2)c2c(-c3ccnc(N)c3)c[nH]c2n1 [Example 24, 4-(4-{[5-(4-fluorophenyl)-1,2-oxazal-3-yl]methoxy}-2-methyl-7H-pyrrolo[2,3-d]pyrimidin-5-yl)pyridin-2-amine] | 0.066 |
| COc1ccc(COc2nc(C)nc3[nH]cc(-c4ccnc(N)c4)c23)cc1 [Example 26, 4-{4-[(4-methoxybenzyl)oxy]-2-methyl-7H-pyrrolo[2,3-d]pyrimidin-5-yl}pyridin-2-amine] | 0.029 |
| Cc1nc(N(C)C)c2c(-c3ccnc(N)c3)c[nH]c2n1 [Example 29, 5-(2-aminopyridin-4-yl)-N,N,2-trimethyl-7H-pyrrolo[2,3-d]pyrimidin-4-amine] | 0.062 |
| Cc1nc(N2CCCC2)c2c(-c3ccnc(N)c3)c[nH]c2n1 [Example 30, 4-[2-methyl-4-(pyrrolidin-1-yl)-7H-pyrrolo[2,3-d]pyrimidin-5-yl]pyridin-2-amine] | 0.827 |
| Cc1nc(N2CCC(N(C)C)C2)c2c(-c3ccnc(N)c3)c[nH]c2n1 (centres unmarked) [Example 31, 4-{4-[3-(dimethylamino)pyrrolidin-1-yl]-2-methyl-7H-pyrrolo[2,3-d]pyrimidin-5-yl}pyridin-2-amine] | 1.07 |
| Cc1nc(N2CCN(C)CC2)c2c(-c3ccnc(N)c3)c[nH]c2n1 [Example 33, 4-[2-methyl-4-(4-methypiperazin-1-yl)-7H-pyrrolo[2,3-d]pyrimidin-5-yl]pyridin-2-amine] | 0.165 |
| Cc1nc(NCc2cccnc2)c2c(-c3ccnc(N)c3)c[nH]c2n1 [Example 34, 5-(2-aminopyridin-4-yl)-2-methyl-N-(pyridin-3-ylmethyl)-7H-pyrrolo[2,3-d]pyrimidin-4-amine] | 0.278 |

More lines, now with the values ahead:

| IC50 [µM] | Compound |
| --- | --- |
| 0.149 | Cc1nc(NCc2ccnn2C)c2c(-c3ccnc(N)c3)c[nH]c2n1 [Example 38, 5-(2-aminopyridin-4-yl)-2-methyl-N-[(1-methyl-1H-pyrazol-5-yl)methyl]-7H-pyrrolo[2,3-d]pyrimidin-4-amine] |
| 0.084 | Cc1nc(NCc2nccs2)c2c(-c3ccnc(N)c3)c[nH]c2n1 [Example 39, 5-(2-aminopyridin-4-yl)-2-methyl-N-(1,3-thiazol-2-ylmethyl)-7H-pyrrolo[2,3-d]pyrimidin-4-amine] |
| 0.158 | Cc1nc(NCc2cncs2)c2c(-c3ccnc(N)c3)c[nH]c2n1 [Example 41, 5-(2-aminopyridin-4-yl)-2-methyl-N-(1,3-thiazol-5-ylmethyl)-7H-pyrrolo[2,3-d]pyrimidin-4-amine] |
| 0.233 | Cc1nc(NCc2ccccc2)c2c(-c3ccncc3)c[nH]c2n1 [Example 42, N-benzyl-2-methyl-5-(pyridin-4-yl)-7H-pyrrolo[2,3-d]pyrimidin-4-amine] |
| 0.278 | Cc1cc(-c2c[nH]c3nc(C)nc(NCc4ccccc4)c23)ccn1 [Example 43, N-benzyl-2-methyl-5-(2-methylpyridin-4-yl)-7H-pyrrolo[2,3-d]pyrimidin-4-amine] |
| 0.249 | Cc1nc(NCc2ccsc2)c2c(-c3ccncc3)c[nH]c2n1 [Example 44, 2-methyl-5-(pyridin-4-yl)-N-(thiophen-3-ylmethyl)-7H-pyrrolo[2,3-d]pyrimidin-4-amine] |
| 0.369 | Cc1nc(NCc2cc(C)on2)c2c(-c3ccncc3)c[nH]c2n1 [Example 46, 2-methyl-N-[(5-methyl-1,2-oxazol-3-yl)methyl]-5-(pyridin-4-yl)-7H-pyrrolo[2,3-d]pyrimidin-4-amine] |
| 0.372 | Cc1cc(-c2c[nH]c3nc(C)nc(NCc4cc(C)on4)c23)ccn1 [Example 47, 2-methyl-N-[(5-methyl-1,2-oxazol-3-yl)methyl]-5-(2-methylpyridin-4-yl)-7H-pyrrolo[2,3-d]pyrimidin-4-amine] |
| 0.127 | Cc1nc(NC(C)c2ccccc2)c2c(-c3ccnc(N)c3)c[nH]c2n1 (centres unmarked) [Example 49, 5-(2-aminopyridin-4-yl)-2-methyl-N-(1-phenylethyl)-7H-pyrrolo[2,3-d]pyrimidin-4-amine] |
| 0.045 | Cc1nc(NCc2cccc(F)c2)c2c(-c3ccnc(N)c3)c[nH]c2n1 [Example 50, 5-(2-aminopyridin-4-yl)-N-(3-fluorobenzyl)-2-methyl-7H-pyrrolo[2,3-d]pyrimidin-4-amine] |
| 0.094 | Cc1nc(N[C@@H](C)c2ccccc2)c2c(-c3ccnc(N)c3)c[nH]c2n1 [Example 67, 5-(2-aminopyridin-4-yl)-2-methyl-N-[(1S)-1-phenylethyl]-7H-pyrrolo[2,3-d]pyrimidin-4-amine] |
| 0.059 | Cc1nc(N[C@H](C)c2ccccc2)c2c(-c3ccnc(N)c3)c[nH]c2n1 [Example 68, 5-(2-aminopyridin-4-yl)-2-methyl-N-[(1R)-1-phenylethyl]-7H-pyrrolo[2,3-d]pyrimidin-4-amine] |
| 0.057 | Cc1nc(N[C@H]2CCc3ccccc32)c2c(-c3ccnc(N)c3)c[nH]c2n1 [Example 77, 5-(2-aminopyridin-4-yl)-N-[(1S)-2,3-dihydro-1H-inden-1-yl]-2-methyl-7H-pyrrolo[2,3-d]pyrimidin-4-amine] |
| 0.121 | Cc1nc(N[C@H](C)c2ccccc2F)c2c(-c3ccnc(N)c3)c[nH]c2n1 [Example 86, 5-(2-aminopyridin-4-yl)-N-[(1R)-1-(2-fluorophenyl)ethyl]-2-methyl-7H-pyrrolo[2,3-d]pyrimidin-4-amine] |
| 1.94 | Cc1nc(NCc2ccc(-c3ccccn3)s2)c2c(-c3ccnc(N)c3)c[nH]c2n1 [Example 87, 5-(2-aminopyridin-4-yl)-2-methyl-N-{[5-(pyridin-2-yl)thiophen-2-yl]methyl}-7H-pyrrolo[2,3-d]pyrimidin-4-amine] |
| 2.09 | Cc1nc(NCc2cc(-c3ccccc3)no2)c2c(-c3ccnc(N)c3)c[nH]c2n1 [Example 88, 5-(2-aminopyridin-4-yl)-2-methyl N-[(3-phenyl-1,2-oxazol-5-yl)methyl]-7H-pyrrolo[2,3-d]pyrimidin-4-amine] |
| 0.038 | Cc1nc(N[C@@H]2CCCc3ccccc32)c2c(-c3ccnc(N)c3)c[nH]c2n1 [Example 91, 5-(2-aminopyridin-4-yl)-2-methyl-N-[(1R)-1,2,3,4-tetrahydronaphthalen-1-yl]-7H-pyrrolo[2,3-d]pyrimidin-4-amine] |
| 0.087 | Cc1nc(NCc2cc(Cl)ccc2Cl)c2c(-c3ccnc(N)c3)c[nH]c2n1 [Example 92, 5-(2-aminopyridin-4-yl)-N-(2,5-dichlorobenzyl)-2-methyl-7H-pyrrolo[2,3-d]pyrimidin-4-amine] |
| 0.176 | Cc1nc(NC2CCCCC2)c2c(-c3ccnc(N)c3)c[nH]c2n1 [Example 93, 5-(2-aminopyridin-4-yl)-N-cyclohexyl-2-methyl-7H-pyrrolo[2,3-d]pyrimidin-4-amine] |
| 0.063 | Cc1nc(N2CCCC(C)C2)c2c(-c3ccnc(N)c3)c[nH]c2n1 (centres unmarked) [Example 97, 4-[2-methyl-4-{3-methylpiperidin-1-yl)-7H-pyrrolo[2,3-d]pyrimidin-5-yl]pyridin-2-amine] |
| 0.161 | Cc1nc(NCCC(F)(F)F)c2c(-c3ccnc(N)c3)c[nH]c2n1 [Example 100, 5-(2-aminopyridin-4-yl)-2-methyl-N-(3,3,3-trifluoropropyl)-7H-pyrrolo[2,3-d]pyrimidin-4-amine] |
| 0.034 | Cc1nc(N2CCC3(CCCCC3)CC2)c2c(-c3ccnc(N)c3)c[nH]c2n1 [Example 101, 4-[4-(3-azaspiro[5.5]undec-3-yl)-2-methyl-7H-pyrrolo[2,3-d]pyrimidin-5-yl]pyridin-2-amine] |
| 0.293 | Cc1nc(N2CCC3(CCC(C)CC3)C2)c2c(-c3ccnc(N)c3)c[nH]c2n1 (centres unmarked) [Example 102, 4-[2-methyl-4-(8-methyl-2-azaspiro[4.5]dec-2-yl)-7H-pyrrolo[2,3-d]pyrimidin-5-yl]pyridin-2-amine] |

From patent US20180273538A1, “PYRROLO[2,3-d]PYRIMIDINE DERIVATIVES, A PROCESS FOR THEIR PREPARATION AND PHARMACEUTICAL COMPOSITIONS CONTAINING THEM” (LES LABORATOIRES SERVIER, priority 2015, published 2018)
